From patent US7563774B2, “Combination of FBPase inhibitors and antidiabetic agents useful for the treatment of diabetes” (Metabasis Therapeutics, Inc., priority 2000, dated 2009)
Like-named read-outs stand apart in the source and are kept apart here.

Key:
[1] = tested on: Sprague-Dawley or Wistar rats; conditions: fasted rat, cited from earlier work; for ED50: 2 h
C57BL/KsJ db/db mice [2] = assay: Chronic combination treatment of insulin and Compound G in db/db mice (Example AA); assay type: in vivo, mouse
Experimental: Male C57BL/KsJ db/db mice were purchased at 5 weeks of age from Clea Japan, Inc. (Tokyo, Japan). The mice were maintained under standard vivarium conditions (24-26° C., 12-hour light cycle, 12-hour dark cycle) and received standard chow and water ad libitum. At 16 weeks of age, animals were divided into 2 groups (n=5 or 9-10/group). Both groups were subcutaneously injected with human recombinant insulin (Penfill N300, Novo Nordisk, Denmark) on a daily basis to adjust plasma glucose levels to the target range of 250 to 300 mg/dL.

C57BL/KsJ db/db mice [3] = assay: Acute combination treatment of insulin and Compound G in db/db mice (Example Z); assay type: in vivo, mouse
Experimental: Male C57BL/KsJ db/db mice were purchased at 5 weeks of age from Clea Japan, Inc. (Tokyo, Japan). The mice were maintained under standard vivarium conditions (24-26° C., 12-hour light cycle, 12-hour dark cycle) and received standard chow and water ad libitum. At 20 weeks of age, animals were divided into 4 groups (n=6/group). The treatment groups were control, compound G, insulin, and the combination of compound G and insulin. […] Insulin (human recombinant insulin, Penfill R300, Novo Nordisk, Denmark) was injected subcutaneously at a dose of 1.5 U/kg. Food was removed after treatment. Blood glucose levels in tail vein samples were measured by means of a Glucoloader-F, an automatic glucose analyzer, (A&T Co., Ltd., Tokyo, Japan).

Goto-Kakizaki (GK) rats = assay: Acute combination treatment of insulin and an FBPase inhibitor in the Goto-Kakizaki rat (Example CC); assay type: in vivo
Experimental: Male Goto-Kakizaki (GK) rats were purchased at 9 weeks of age from Charles River Japan, Inc. (Tokyo, Japan). The rats were maintained under standard vivarium conditions (24-26° C., 12-hour light cycle, 12-hour dark cycle) and received standard chow and water ad libitum. At 48 weeks of age, animals were divided into 4 groups (n=6/group) after an overnight fast. The treatment groups were control, Compound J, insulin, and combination of Compound J and insulin. […] Insulin (human recombinant insulin, Penfill N300, Novo Nordisk, Denmark) was subcutaneously injected at the dose of 1.5 U/kg. Blood glucose levels in tail vein samples were measured by means of a Glucoloader-F, an automatic glucose analyzer, (A&T Co., Ltd., Tokyo, Japan).

C57BL/KsJ db/db mice [4] = assay: Chronic combination treatment of insulin and Compound J in db/db mice (Example BB); assay type: in vivo, mouse
Experimental: Male C57BL/KsJ db/db mice were purchased at 5 weeks of age from Clea Japan, Inc. (Tokyo, Japan). […] At 19 weeks of age, animals were divided into 2 groups (n=6/group). […] Blood glucose levels in tail vein samples were measured by means of a Glucoloader-F, an automatic glucose analyzer, (A&T Co., Ltd., Tokyo, Japan).

Compound: CCC1=C(C)CN(C(=O)NCCc2ccc(S(=O)(=O)NC(=O)N[C@H]3CC[C@H](C)CC3)cc2)C1=O [Glimepiride]
- ED50 [1]: 0.182 (2 h) mg/kg
- Gluc low,% ([1]; Dose 0.1): −18%

Compound: Insulin: human recombinant insulin, Penfill R300 (Example Z) or Penfill N300 (Examples AA, BB, CC), Novo Nordisk
- Body Weight (C57BL/KsJ db/db mice [2]; after 1 week): 50.7 ± 1.5 g
- Insulin Dose required to adjust plasma glucose to 250-300 mg/dL (C57BL/KsJ db/db mice [2]; after 1 week): 753 +/− 72 U/kg
- Plasma Glucose (C57BL/KsJ db/db mice [2]; after 1 week, insulin adjusted daily, Compound G 0.2% food admixture): 297.1 ± 46.0 mg/dL
- Body Weight (C57BL/KsJ db/db mice [2]; after 2 weeks): 54.3 ± 1.2 g
- Insulin Dose required to adjust plasma glucose to 250-300 mg/dL (C57BL/KsJ db/db mice [2]; after 2 weeks): 492 +/− 68 U/kg
- Plasma Glucose (C57BL/KsJ db/db mice [2]; after 2 weeks): 375.6 ± 53.5 mg/dL
- Body Weight (C57BL/KsJ db/db mice [2]; after 3 weeks): 57.4 ± 1.6 g
- Insulin Dose required to adjust plasma glucose to 250-300 mg/dL (C57BL/KsJ db/db mice [2]; after 3 weeks): 306 +/− 67 U/kg
- Plasma Glucose (C57BL/KsJ db/db mice [2]; after 3 weeks): 282.4 ± 43.1 mg/dL
- Body Weight (C57BL/KsJ db/db mice [2]; before (0 week)): 43.4 ± 2.2 g
- Insulin Dose required to adjust plasma glucose to 250-300 mg/dL (C57BL/KsJ db/db mice [2]; before (0 week)): 548 +/− 18 U/kg
- Plasma Glucose (C57BL/KsJ db/db mice [2]; before (0 week)): 736.5 ± 17.0 mg/dL
- body weight increase (C57BL/KsJ db/db mice [2]; db/db mice, 3 weeks): increased body weight remarkably
- Plasma Glucose, % of pretreatment values (C57BL/KsJ db/db mice [3]; after 1 hour): (54.2 +/− 4.1) %
- Plasma Glucose (C57BL/KsJ db/db mice [3]; after 1 hour, Compound G 200 mg/kg p.o., insulin 1.5 U/kg s.c.): 410.8 ± 34.4 mg/dL
- Plasma Glucose (C57BL/KsJ db/db mice [3]; after 4 hours): 540.3 ± 35.9 mg/dL
- Plasma Glucose, % of pretreatment values (C57BL/KsJ db/db mice [3]; after 4 hours): (71.4 +/− 4.1) %
- Plasma Glucose (C57BL/KsJ db/db mice [3]; after […]): 463.2 ± 40.2 mg/dL
- Plasma Glucose, % of pretreatment values (C57BL/KsJ db/db mice [3]; after […]): (61.1 +/− 4.9) %
- Plasma Glucose (C57BL/KsJ db/db mice [3]; before (0 hour)): 756.2 ± 15.2 mg/dL
- Plasma Glucose, % of pretreatment values (C57BL/KsJ db/db mice [3]; before (0 hour)): (100.0 +/− 0.0) %
- plasma glucose lowering (C57BL/KsJ db/db mice [3]; db/db mice, acute): improved hyperglycemia within 2.5 hours
- plasma glucose lowering (Goto-Kakizaki (GK) rats; GK rats, acute): decreased plasma glucose within 2 hours
- Plasma Glucose, % of before (Goto-Kakizaki (GK) rats; after 2 hour): (55.0 +/− 11.0) %
- Plasma Glucose (Goto-Kakizaki (GK) rats; after 2 hour, Compound J 50 mg/kg p.o., insulin 1.5 U/kg s.c.): 88.8 ± 16.8 mg/dL
- Plasma Glucose (Goto-Kakizaki (GK) rats; after 4 hours): 71.3 ± 20.9 mg/dL
- Plasma Glucose, % of before (Goto-Kakizaki (GK) rats; after 4 hours): (43.9 +/− 13.3) %
- Plasma Glucose (Goto-Kakizaki (GK) rats; after 6 hours): 90.7 ± 19.7 mg/dL
- Plasma Glucose, % of before (Goto-Kakizaki (GK) rats; after 6 hours): (55.4 +/− 12.4) %
- Plasma Glucose (Goto-Kakizaki (GK) rats; before (0 hour)): 163.7 ± 5.8 mg/dL
- Plasma Glucose, % of before (Goto-Kakizaki (GK) rats; before (0 hour)): (100.0 +/− 0.0) %
- Body Weight (C57BL/KsJ db/db mice [4]; after 1 week): 57.9 ± 1.3 g
- Insulin Dose required to achieve target blood glucose levels (C57BL/KsJ db/db mice [4]; after 1 week): 495 +/− 32 U/kg
- Plasma Glucose (C57BL/KsJ db/db mice [4]; after 1 week, insulin adjusted daily, Compound J 0.2% food admixture): 408.8 ± 15.3 mg/dL
- Body Weight (C57BL/KsJ db/db mice [4]; after 2 weeks): 59.7 ± 1.3 g
- Insulin Dose required to achieve target blood glucose levels (C57BL/KsJ db/db mice [4]; after 2 weeks): 699 +/− 63 U/kg
- Plasma Glucose (C57BL/KsJ db/db mice [4]; after 2 weeks): 447.7 ± 17.6 mg/dL
- Body Weight (C57BL/KsJ db/db mice [4]; after 3 weeks): 61.4 ± 1.2 g
- Insulin Dose required to achieve target blood glucose levels (C57BL/KsJ db/db mice [4]; after 3 weeks): 760 +/− 95 U/kg
- Plasma Glucose (C57BL/KsJ db/db mice [4]; after 3 weeks): 396.3 ± 39.3 mg/dL
- Body Weight (C57BL/KsJ db/db mice [4]; after 4 weeks): 64.2 ± 1.0 g
- Insulin Dose required to achieve target blood glucose levels (C57BL/KsJ db/db mice [4]; after 4 weeks): 802 +/− 129 U/kg
- Plasma Glucose (C57BL/KsJ db/db mice [4]; after 4 weeks): 316.7 ± 17.2 mg/dL
- Body Weight (C57BL/KsJ db/db mice [4]; before (0 week)): 54.9 ± 1.4 g
- Insulin Dose required to achieve target blood glucose levels (C57BL/KsJ db/db mice [4]; before (0 week)): 0 +/− 0 U/kg
- Plasma Glucose (C57BL/KsJ db/db mice [4]; before (0 week)): 617.2 ± 28.1 mg/dL
- body weight gain (C57BL/KsJ db/db mice [4]; db/db mice, 4 weeks of treatment): resulted in an increase in body weight

Compound: CCOc1cc(CC(=O)N[C@@H](CC(C)C)c2ccccc2N2CCCCC2)ccc1C(=O)O [Repaglinide]
- ED50 [1]: 0.01 (2 h) mg/kg
- Gluc low,% ([1]; Dose 0.01): −21%
